Measurements as given in patent publication US20250152612A1, “POLYPEPTIDE COUPLED BORON CARRYING AGENT, PREPARATION METHOD THEREFOR, AND PHARMACEUTICAL FORMULATION” (Peking University, priority 2021, published 2025).

Assays:
HS683 cells = conditions: 12 hours incubation; B content per 10^6 cells; FIG. 4
Method: (§1) 0.2 mg/g. 0.4 mg/g. 0.6 mg/g and 0.8 mg/g, added to U87MG, U251, A375, A549, HS683 and Hep cell lines cultured in 25 T petri dishes, respectively, and incubated in a thermostatic incubator for 12 hours. Subsequently, the cells and culture medium were separated, and the number of cells was determined. After digesting the cells with concentrated nitric acid, the B content in the cells was determined by ICP-AES.
(§2) Meanwhile, the BPA was formulated into aqueous solutions of 0.1 mg/g, 0.2 mg/g, 0.4 mg/g, 0.6 mg/g, and 0.8 mg/g, added into U87MG, U251, A375, A549, HS683 and Hep cell lines cultured in 25 T petri dishes, respectively, and incubated in a thermostatic incubator for 12 hours. Subsequently, the cells and culture medium were separated, and the number of cells was determined. After digesting the cells with concentrated nitric acid, the B content in the cells was determined by ICP-AES.
(§3) The […] is 249.772 nm. After determination, the B content contained in every 10^6 cells can be calculated and plotted in FIG. 4.

A375 cells = conditions: 12 hours incubation; B content per 10^6 cells; FIG. 4
Method: as §1, §2, §3

N-4-carboxyphenylboronic acid amide-arginine-lysine-lysine-lysine-arginine-arginine-glutamine-arginine-arginine-arginine [compound 2]
uptake in cerebral glioma HS683 cells compared with BPA (HS683 cells): significantly higher than BPA
uptake in A375 cells compared with BPA (A375 cells): significantly higher than BPA
